The numbers were not newly measured in patent publication US20100087769A1, “BIOCIDIC MEDICAL DEVICES, IMPLANTS AND WOUND DRESSINGS” (OPLON B.V., priority 2007, published 2010), which cites them from elsewhere.

“Also recorded” adds a separate entry of the source. Read-outs that look alike come from different tables or passages of the source.

Data set [1] has as its system aerobic gram-negative bacilli, P. aeruginosa. Conditions: spectrum as listed in the cell.
Assay in data set [2]: not given
This is another data set of the same source.

In data set [3] the test system is Aspergillus or Fusarium spp. Conditions: powder, 6 million units/g; four burn patients.
Data set [4] deals with other Candida spp. and fungi.
The conditions of data set [5]: topical.
The subject of a further data set is MRSA. Conditions: topical; 1% silver sulfadiazine, 2% mupirocin, 2% fusidic acid.

In the case of `NCc1ccc(S(N)(=O)=O)cc1` [Mafenide acetate], the Antibacterial activity entry in data set [1] was “Broad spectrum against”. In addition, under “burns of 40 to 79% TBSA”, the reduction in mortality result is “greater than 10%”. Further, the effect on mortality result (patients with smaller or much larger burn injuries) is listed as “only a minimal effect”. Also, in data set [2] (in vivo), the Major toxicity result is “Metabolic”.

`C[C@@H]1[C@H](O)[C@@H](C)/C=C/C=C/CC/C=C/C=C/C=C/C=C/C(O[C@H]2O[C@H](C)[C@@H](O)[C@H](N)[C@@H]2O)CC2O[C@](O)(CC(O)C(O)CCC(O)CC(O)CC(O)CC(=O)O[C@H]1C)CC(O)C2C(=O)O` (stereo partly drawn) [Nystatin]: the “treatment of angioinvasive fungal infections” value in data set [3] was “effective”. The concentration that inhibits in the data set on Candida albicans was 3 µg/mL. In addition, the “concentration needed to inhibit” value in data set [4] was 6.25 µg/mL.

With `O=[N+]([O-])[O-].[Ag+]` [Silver nitrate], the Antibacterial activity entry in data set [1] was “Bacteriostatic against; also recorded: limited antifungal”. The Major toxicity result in data set [2] (topical) is recorded as “Electrolyte”. Besides, the Eschar penetration result in data set [5] is listed as “None”.

As to `CC(=O)O[C@H]1C[C@@]2(C)[C@@H](C[C@@H](O)[C@H]3[C@@]4(C)CC[C@@H](O)[C@@H](C)[C@@H]4CC[C@@]32C)/C1=C(\CCC=C(C)C)C(=O)O` [fusidic acid], the “reducing local wound bacterial counts and preventing systemic infection” value in the data set with MRSA is listed as “equally effective”.

On to `C/C(=C\C(=O)OCCCCCCCCC(=O)O)C[C@@H]1OC[C@H](C[C@@H]2O[C@H]2[C@@H](C)[C@H](C)O)[C@@H](O)[C@H]1O` [mupirocin, pseudomonic acid A], for which the “reducing local wound bacterial counts and preventing systemic infection” value with MRSA is given as “equally effective”.
